Reference: ChEMBL document CHEMBL1148133, “New diterpene glycosides of the fungus Acremonium striatisporum isolated from a sea cucumber” (J Nat Prod, 2002)
≈ marks a conversion by molar mass, not a printed value.

Tests used:
[1] = Cytotoxicity against mouse EAC; format: functional, cell-based; settings: Ehrlich
[2] = Cytotoxicity against Strongylocentrotus intermedius developing egg; format: functional

Row | Compound | IC50 [1] | MIC [2]
1 | C=C[C@]1(C)C=C2[C@H](O)C[C@@H]3[C@](C)(CC[C@H](O)[C@]3(C)CO[C@@H]3O[C@H](CO)[C@@H](O)[C@@H](O)[C@@H]3O)[C@H]2CC1 [VIRESCENOSIDE O] | 20 µM | 
2 | C=C[C@@]1(C)CC[C@H]2C(=CC[C@@H]3[C@]2(C)CC[C@H](O)[C@]3(C)CO[C@@H]2O[C@H](CO)[C@@H](O)[C@H](O)[C@@H]2O)C1 [VIRESCENOSIDE Q] | 20 µM | 
3 | C=C[C@@]1(C)CCC2=C(C1)C(=O)C[C@H]1[C@@](C)(CO[C@@H]3O[C@H](CO)[C@@H](O)[C@@H](O)[C@@H]3O)[C@@H](O)CC[C@]21C [VIRESCENOSIDE P] | 20 µM | 5 µM (≈ 2.4 µg/mL)
